Biological target: T1, SIRT1 (Homo sapiens, UniProt Q96EB6)
T1 sequence (Q96EB6 1-747): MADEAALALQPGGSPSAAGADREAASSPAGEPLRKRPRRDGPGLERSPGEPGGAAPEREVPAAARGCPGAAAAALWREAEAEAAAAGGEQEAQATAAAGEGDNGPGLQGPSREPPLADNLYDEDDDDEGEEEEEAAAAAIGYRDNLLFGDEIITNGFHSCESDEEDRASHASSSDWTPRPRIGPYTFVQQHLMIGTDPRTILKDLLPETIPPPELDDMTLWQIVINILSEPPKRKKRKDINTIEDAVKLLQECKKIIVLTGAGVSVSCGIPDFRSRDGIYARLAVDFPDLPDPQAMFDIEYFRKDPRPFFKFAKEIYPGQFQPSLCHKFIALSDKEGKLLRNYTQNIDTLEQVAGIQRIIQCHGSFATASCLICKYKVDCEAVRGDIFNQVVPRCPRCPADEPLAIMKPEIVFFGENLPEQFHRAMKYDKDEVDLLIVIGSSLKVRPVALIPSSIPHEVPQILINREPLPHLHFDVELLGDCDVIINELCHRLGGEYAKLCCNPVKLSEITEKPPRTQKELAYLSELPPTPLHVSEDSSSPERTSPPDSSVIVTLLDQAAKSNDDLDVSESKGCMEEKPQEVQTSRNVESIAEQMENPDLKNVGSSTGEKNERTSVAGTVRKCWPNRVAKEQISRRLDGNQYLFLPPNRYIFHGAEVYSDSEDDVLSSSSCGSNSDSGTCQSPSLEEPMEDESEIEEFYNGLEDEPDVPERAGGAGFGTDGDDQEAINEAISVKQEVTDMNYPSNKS
Test: Mass spectrometry based assay of SIRT1 activity (deacetylation of a p53-based acetylated peptide)
Assay type: biochemical
Settings: 10 nM SIRT1, 0.5 μM peptide substrate, 120 μM βNAD+, 25 minutes at 25° C.; for Emax: read-out: % FOLD ACT. (percent maximum fold activation)
Description: A mass spectrometry based assay was used to identify modulators of SIRT1 activity. The mass spectrometry based assay utilizes a peptide having 20 amino acid residues as follows: Ac-EE-K(biotin)-GQSTSSHSK(Ac)NleSTEG-K(5TMR)-EE-NH2 (SEQ ID NO: 1) wherein K(Ac) is an acetylated lysine residue and Nle is a norleucine. The peptide is labeled with the fluorophore 5TMR (excitation 540 nm/emission 580 nm) at the C-terminus. The sequence of the peptide substrate is based on p53 with several modifications. In addition, the methionine residue naturally present in the sequence was replaced with the norleucine because the methionine may be susceptible to oxidation during synthesis and purification.
The mass spectrometry assay is conducted as follows: 0.5 μM peptide substrate and 120 μM βNAD^+ is incubated with 10 nM SIRT1 for 25 minutes at 25° C. in a reaction buffer (50 mM Tris-acetate pH 8, 137 mM NaCl, 2.7 mM KCl, 1 mM MgCl2, 5 mM DTT, 0.05% BSA). Test compounds may be added to the reaction as described above. […] After the 25 minute incubation with SIRT1, 10 μL of 10% formic acid is added to stop the reaction. Reactions are sealed and frozen for later mass spec analysis. Determination of the mass of the substrate peptide allows for precise determination of the degree of acetylation (i.e. starting material) as compared to deacetylated peptide (product).
A control for inhibition of sirtuin activity is conducted by adding 1 μL of 500 mM nicotinamide as a negative control at the start of the reaction (e.g., permits determination of maximum sirtuin inhibition). A control for activation of sirtuin activity is conducted using 10 nM of sirtuin protein, with 1 μL of DMSO in place of compound, to determine the amount of deacetylation of the substrate at a given timepoint within the linear range of the assay. This timepoint is the same as that used for test compounds and, within the linear range, the endpoint represents a change in velocity.
For the above assay, SIRT1 protein was expressed and purified as follows. […] The protein was expressed by induction with 1 mM IPTG as an N-terminal His-tag fusion protein at 18° C. overnight and harvested at 30,000×g. Cells were lysed with lysozyme in lysis buffer (50 mM Tris-HCl, 2 mM Tris[2-carboxyethyl]phosphine (TCEP), 10 μM ZnCl2, 200 mM NaCl) and further treated with sonication for 10 min for complete lysis. The protein was purified over a Ni-NTA column (Amersham) and fractions containing pure protein were pooled, concentrated and run over a sizing column (Sephadex S200 26/60 global). The peak containing soluble protein was collected and run on an Ion-exchange column (MonoQ). Gradient elution (200 mM-500 mM NaCl) yielded pure protein. This protein was concentrated and dialyzed against dialysis buffer (20 mM Tris-HCl, 2 mM TCEP) overnight. The protein was aliquoted and frozen at −80° C. until further use.
Sirtuin modulating compounds that activated SIRT1 were identified using the assay described above and are shown below in Table 1 for compounds of Formula (III)). The EC1.5 values represent the concentration of test compounds that result in 150% activation of SIRT1. The EC1.5 values for the activating compounds in Table 1 are represented by A (EC1.5<10.0 μM), B (EC1.5 10-25 μM), C (EC1.5>25 μM). The percent maximum fold activation is represented by A (Fold activation>200%) or B (Fold Activation<200%); “NT” means not tested; “ND” mean not determinable.

Cc1cncc(-c2ccc3c(n2)C(NC(=O)c2cnccn2)CCC3)c1 (stereo not drawn) [Compound 200, N-(2-(5-methylpyridin-3-yl)-5,6,7,8-tetrahydroquinolin-8-yl)pyrazine-2-carboxamide]
EC1.5 (concentration of test compound that results in 150% activation of SIRT1): C (EC1.5>25 μM)

CC(C)c1cccc(-c2cccc(C(C)NC(=O)c3cscn3)n2)c1 (stereo not drawn) [Compound 201]
EC1.5 (concentration of test compound that results in 150% activation of SIRT1): C (EC1.5>25 μM) | Emax: < 200%

CC(C)c1cccc(-c2cccc(C(C)NC(=O)c3cnccn3)n2)c1 (stereo not drawn) [Compound 202]
EC1.5 (concentration of test compound that results in 150% activation of SIRT1): C (EC1.5>25 μM) | Emax: < 200%

CC(NC(=O)c1cscn1)c1cccc(-c2cccc(C(F)(F)F)c2)n1 (stereo not drawn) [Compound 203]
EC1.5 (concentration of test compound that results in 150% activation of SIRT1): B (EC1.5 10-25 μM) | Emax: < 200%

CC(NC(=O)c1cnccn1)c1cccc(-c2cccc(C(F)(F)F)c2)n1 (stereo not drawn) [Compound 204, N-(1-(6-(3-(trifluoromethyl)phenyl)pyridin-2-yl)ethyl)pyrazine-2-carboxamide]
EC1.5 (concentration of test compound that results in 150% activation of SIRT1): B (EC1.5 10-25 μM) | Emax: > 200%

O=C(NC1CCCc2ccc(-c3cccc(C(F)(F)F)c3)nc21)c1cscn1 (stereo not drawn) [Compound 205]
EC1.5 (concentration of test compound that results in 150% activation of SIRT1): C (EC1.5>25 μM) | Emax: < 200%

O=C(NC1CCCc2ccc(-c3cccc(C(F)(F)F)c3)nc21)c1cnccn1 (stereo not drawn) [Compound 206, N-(2-(3-(trifluoromethyl)phenyl)-5,6,7,8-tetrahydroquinolin-8-yl)pyrazine-2-carboxamide]
EC1.5 (concentration of test compound that results in 150% activation of SIRT1): A (EC1.5<10.0 μM) | Emax: > 200%

CC(NC(=O)c1cnccn1)c1cccc(-c2cccc(OC(F)(F)F)c2)n1 (stereo not drawn) [Compound 207]
EC1.5 (concentration of test compound that results in 150% activation of SIRT1): B (EC1.5 10-25 μM) | Emax: > 200%

CC(C(=O)Nc1cccnc1)c1cccc(-c2cccc(C(F)(F)F)c2)n1 (stereo not drawn) [Compound 210]
EC1.5 (concentration of test compound that results in 150% activation of SIRT1): C (EC1.5>25 μM)

CC(NC(=O)c1cnccn1)c1cccc(-c2ccccc2)n1 (stereo not drawn) [Compound 211]
EC1.5 (concentration of test compound that results in 150% activation of SIRT1): C (EC1.5>25 μM)

CC(NC(=O)c1cccnc1)c1cccc(-c2cccc(C(F)(F)F)c2)n1 (stereo not drawn) [Compound 212]
EC1.5 (concentration of test compound that results in 150% activation of SIRT1): A (EC1.5<10.0 μM) | Emax: > 200%

CC(NC(=O)c1cnccn1)c1cccc(-c2cccnc2)n1 (stereo not drawn) [Compound 213]
EC1.5 (concentration of test compound that results in 150% activation of SIRT1): C (EC1.5>25 μM)

CC(C(=O)Nc1cnccn1)c1cccc(-c2cccc(C(F)(F)F)c2)n1 (stereo not drawn) [Compound 214, N-2-pyrazinyl-2-{6-[3-(trifluoromethyl)phenyl]-2-pyridinyl}propanamide]
EC1.5 (concentration of test compound that results in 150% activation of SIRT1): C (EC1.5>25 μM)

CC(NC(=O)c1ccccc1)c1cccc(-c2cccc(C(F)(F)F)c2)n1 (stereo not drawn) [Compound 215]
EC1.5 (concentration of test compound that results in 150% activation of SIRT1): C (EC1.5>25 μM)

CC(NC(=O)c1cccnc1)c1cccc(-c2cccc(C(F)(F)F)c2)n1 (stereo not drawn) [Compound 216]
EC1.5 (concentration of test compound that results in 150% activation of SIRT1): C (EC1.5>25 μM)

CC(NC(=O)c1ccccc1)c1cccc(-c2ccccc2)n1 (stereo not drawn) [Compound 217]
EC1.5 (concentration of test compound that results in 150% activation of SIRT1): C (EC1.5>25 μM)

CC(NC(=O)c1cccnc1)c1cccc(-c2cccc(OC(F)(F)F)c2)n1 (stereo not drawn) [Compound 218]
EC1.5 (concentration of test compound that results in 150% activation of SIRT1): C (EC1.5>25 μM)

CC(NC(=O)c1cccc(CN2CCCC2)n1)c1cccc(-c2cccc(C(F)(F)F)c2)n1 (stereo not drawn) [Compound 219]
EC1.5 (concentration of test compound that results in 150% activation of SIRT1): C (EC1.5>25 μM)

CC(NC(=O)c1cccc(CN2CCCC2)n1)c1cccc(-c2cccnc2)n1 (stereo not drawn) [Compound 220]
EC1.5 (concentration of test compound that results in 150% activation of SIRT1): C (EC1.5>25 μM)

CC(C(=O)Nc1nccs1)c1cccc(-c2cccc(C(F)(F)F)c2)n1 (stereo not drawn) [Compound 221]
EC1.5 (concentration of test compound that results in 150% activation of SIRT1): C (EC1.5>25 μM)

O=C(NC1CCOc2ccc(-c3cccc(C(F)(F)F)c3)nc21)c1cccc(N2CCOCC2)n1 (stereo not drawn) [Compound 222, 6-morpholino-N-(6-(3-(trifluoromethyl)phenyl)-3,4-dihydro-2H-pyrano[3,2-b]pyridin-4-yl)picolinamide]
EC1.5 (concentration of test compound that results in 150% activation of SIRT1): A (EC1.5<10.0 μM) | Emax: > 200%

O=C(NC1CCOc2ccc(-c3cccc(C(F)(F)F)c3)nc21)c1ccnc(CN2CCOCC2)c1 (stereo not drawn) [Compound 223]
EC1.5 (concentration of test compound that results in 150% activation of SIRT1): C (EC1.5>25 μM)

O=C(NC1CCOc2ccc(-c3cccc(C(F)(F)F)c3)nc21)c1cnccn1 (stereo not drawn) [Compound 224]
EC1.5 (concentration of test compound that results in 150% activation of SIRT1): C (EC1.5>25 μM)

O=C(NC1CCCc2ccc(-c3cccc(C(F)(F)F)c3)nc21)c1ccc(F)c(Cl)c1 (stereo not drawn) [Compound 225]
EC1.5 (concentration of test compound that results in 150% activation of SIRT1): C (EC1.5>25 μM)

O=C(NC1CCCc2ccc(-c3cccc(C(F)(F)F)c3)nc21)c1cccc2c1OC(F)(F)O2 (stereo not drawn) [Compound 226]
EC1.5 (concentration of test compound that results in 150% activation of SIRT1): C (EC1.5>25 μM)

Cc1cc(C(=O)NC2CCCc3ccc(-c4cccc(C(F)(F)F)c4)nc32)n(C)n1 (stereo not drawn) [Compound 227]
EC1.5 (concentration of test compound that results in 150% activation of SIRT1): A (EC1.5<10.0 μM) | Emax: > 200%

O=C(NC1CCCc2ccc(-c3cccc(C(F)(F)F)c3)nc21)c1cc[nH]n1 (stereo not drawn) [Compound 229]
EC1.5 (concentration of test compound that results in 150% activation of SIRT1): B (EC1.5 10-25 μM) | Emax: < 200%

O=C(NC1CCCc2ccc(-c3cccc(C(F)(F)F)c3)nc21)c1ccno1 (stereo not drawn) [Compound 230]
EC1.5 (concentration of test compound that results in 150% activation of SIRT1): C (EC1.5>25 μM)

O=C(NC1CCCc2ccc(-c3cccc(C(F)(F)F)c3)nc21)c1ccccn1 (stereo not drawn) [Compound 231]
EC1.5 (concentration of test compound that results in 150% activation of SIRT1): A (EC1.5<10.0 μM) | Emax: > 200%

O=C(NC1CCCc2ccc(-c3cccc(C(F)(F)F)c3)nc21)c1cccnc1 (stereo not drawn) [Compound 232]
EC1.5 (concentration of test compound that results in 150% activation of SIRT1): C (EC1.5>25 μM) | Emax: < 200%

O=C(NC1CCCc2ccc(-c3cccc(C(F)(F)F)c3)nc21)c1cncnc1 (stereo not drawn) [Compound 233]
EC1.5 (concentration of test compound that results in 150% activation of SIRT1): C (EC1.5>25 μM)

Cc1cnc(C(=O)NC2CCCc3ccc(-c4cccc(C(F)(F)F)c4)nc32)cn1 (stereo not drawn) [Compound 234]
EC1.5 (concentration of test compound that results in 150% activation of SIRT1): A (EC1.5<10.0 μM) | Emax: > 200%

O=C(NC1CCCc2ccc(-c3cccc(C(F)(F)F)c3)nc21)c1cccc(N2CCCC2)n1 (stereo not drawn) [Compound 235]
EC1.5 (concentration of test compound that results in 150% activation of SIRT1): A (EC1.5<10.0 μM) | Emax: < 200%
